What was measured:
DA (TH^+) neurons [1] = assay: MPP^+ intoxication model, DA cell survival in midbrain cultures; type: cell-based, Wistar rat
Description: (§1) Animals were treated in accordance with the Guide for the Care and Use of Laboratory Animals (National Research Council, 1996), European Directive 86/609, and the guidelines of the local institutional animal care and use committee. Cultures were prepared from the ventral mesencephalon of gestational age 15.5 Wistar rat embryos (Janvier Breeding Center, Le Genest St Isle, France). Dissociated cells in suspension obtained by mechanical trituration of midbrain tissue pieces were seeded at a density of 1.2-1.5 10^5 cells/cm^2 onto tissue culture supports precoated with 1 mg/mL polyethylenimine diluted in borate buffer pH 8.3 as described (Michel et al., 1997. J Neurochem. 69(4):1499-507). […] They were fed daily by replacing 70% of the medium. Routinely, mesencephalic cultures were established on Nunc 24-well culture plates (Thermofischer Scientific, Rochester, N.Y.). Note that these cultures contain tyrosine hydroxylase (TH)^+ neurons that were exclusively dopaminergic (Traver et al., 2006. Mol Pharmacol. 70(1):30-40). TH^+ neurons represented approximately 1-2% of the total number of neuronal cells present in these cultures. The evaluation of the survival of DA neurons was performed by counting cells immunopositive for TH as described (Toulorge et al., 2011. Faseb J. 25(8):2563-73).
Treatments with MPP^+ were performed in cultures where the spontaneous death process was prevented by long-term exposure to depolarizing concentrations of K^+ (30 mM), in the presence of the glutamate receptor antagonist MK801 (5 μM) to prevent unwanted excitotoxic insults as described previously (Douhou et al., 2001. J Neurochem. 78(1):163-74). Treatments with MPP^+ and potential neuroprotective molecules were carried out between 5 and 7 DIV. The number of microglial cells was evaluated in this same model since MPP^+ is known to induce microglial proliferation (Henze et al., 2005. J Neurochem. 95(4):1069-77).
The cultures were fixed for 12 min using 4% formaldehyde in Dulbecco's phosphate-buffered saline (PBS), then washed twice with PBS before an incubation step at 4° C. for 24 h with the following antibodies. A monoclonal anti-TH antibody diluted 1/5000 (ImmunoStar, Inc., Hudson, Wis.) or a polyclonal anti-TH antibody diluted 1/1000 (US Biologicals, Salem, Mass.) was used to assess the survival of DA neurons. A monoclonal anti-MAP2 antibody diluted at 1/250 (clone AP20, Sigma-Aldrich) was used to assess the survival of cortical neurons. Microglial cells were characterized using a mouse anti-Ibal antibody (1/50; clone MRC OX-42; Pharmingen, BD Biosciences, Le Pont-de-Claix, France). All antibodies were diluted in PBS containing 0.2% Triton X-100, except the mouse anti-Ibal which was diluted in PBS only. Detection of the primary antibodies was performed with an Alexa Fluor-488 conjugate of an anti-mouse IgG antibody or with an Alexa Fluor-555 conjugate of an anti-rabbit antibody (1:500).

[2] = system: midbrain DA (TH^+) neurons; assay: Spontaneous and progressive dopaminergic (DA) cell death in midbrain cultures; type: cell-based, Wistar rat; settings: NAD^+ 3 mM, antibodies 1 μg/mL
Description: as §1
We used a model system in which DA cell loss was spontaneous. […]

cortical neurons [3] = assay: Excitotoxicity model (glutamate) in cortical cultures; type: cell-based, Wistar rat; settings: glutamate 75 μM between 12 and 14 DIV; NAD^+ 3 mM, antibodies 1 μg/mL
Description: (§2) Animals were treated in accordance with the Guide for the Care and Use of Laboratory Animals (National Research Council, 1996), European Directive 86/609, and the guidelines of the local institutional animal care and use committee. Cultures were prepared from the cortex of gestational age 15.5 Wistar rat embryos (Janvier Breeding Center, Le Genest St Isle, France). Dissociated cells in suspension obtained by mechanical trituration of cortical tissue pieces were seeded onto tissue culture supports precoated with 1 mg/mL polyethylenimine diluted in borate buffer pH 8.3 according to the protocol previously described for mesencephalic cultures. […] They were fed daily by replacing 70% of the medium. Routinely, cortical cultures were established on Nunc 24-well culture plates (Thermofischer Scientific, Rochester, N.Y.).
Glutamate (75 μM) was added to cortical cultures between 12 and 14 DIV in the presence or the absence of potential neuroprotective treatments. The cultures were then fixed in formaldehyde and immunostained using anti-MAP-2 antibody. The area occupied by MAP-2^+ neurons was assessed using ImageJ.
(§3) The cultures were fixed for 12 min using 4% formaldehyde in Dulbecco's phosphate-buffered saline (PBS), then washed twice with PBS before an incubation step at 4° C. for 24 h with the following antibodies. […]

cortical neurons [4] = assay: Oxidative stress model (H2O2) in cortical cultures; type: cell-based, Wistar rat; settings: H2O2 75 μM between 12 and 14 DIV; NAD^+ 3 mM, antibodies 1 μg/mL
Description: as §2
H2O2 (75 μM) was added to cortical cultures between 12 and 14 DIV in the presence or the absence of potential neuroprotective molecules. The cultures were then fixed in formaldehyde and immunostained using anti-MAP-2 antibody. The area occupied by MAP-2′ neurons was assessed using ImageJ.
as §3

cortical neurons [5] = assay: Measurement of glucose uptake in cortical neurons (2-NBDG); type: cell-based, Wistar rat; settings: acute treatment 30 min, 7 DIV; HB7 1 μg/mL, NAD^+ 3 mM, insulin 100 nM
Description: In brief, cultures grown for 7 days were incubated with 2-NBDG (300 μM) for 30 min at 37° C. in the presence of test compounds in glucose-free N5 medium, washed twice to remove excess indicator, and then left to recover for 30 min before assessment. The fluorescent signal (excitation, 465 nm; emission, 540 nm) was acquired using an Arrayscan (ThermoFischer Scientific) and quantified using ImageJ. The average pixel intensity over the surface of each cell body was determined under the different experimental conditions. Background fluorescence was subtracted from raw data, and the results were expressed as a percentage of mean fluorescence intensity per cell under control conditions. 100 cells were analysed under each test condition.

dopaminergic neurons = assay: Prevention of dopaminergic neurons cell death (summary statement); type: cell-based
DA (TH^+) neurons [6] = assay: GDNF withdrawal model in midbrain cultures; settings: GDNF 20 ng/mL for 10 DIV, deprived 11-15 DIV; NAD^+ 3 mM, antibodies 1 μg/mL
Description: They were fed daily by replacing 70% of the medium. Routinely, mesencephalic cultures were established on Nunc 24-well culture plates (Thermofischer Scientific, Rochester, N.Y.). […] TH^+ neurons represented approximately 1-2% of the total number of neuronal cells present in these cultures.
To evaluate the efficacy of our compounds in a more mature population of DA neurons, we also used a variation of the previous model system. More precisely, spontaneous DA cell death was prevented up to 10 DIV by a chronic treatment with GDNF (20 ng/mL) to favor the maturation of healthy DA neurons. Then, DA cell death was triggered by total withdrawal of GDNF for the next 5 days.
The cultures were fixed for 12 min using 4% formaldehyde in Dulbecco's phosphate-buffered saline (PBS), then washed twice with PBS before an incubation step at 4° C. for 24 h with the following antibodies. A monoclonal anti-TH antibody diluted 1/5000 (ImmunoStar, Inc., Hudson, Wis.) or a polyclonal anti-TH antibody diluted 1/1000 (US Biologicals, Salem, Mass.) was used to assess the survival of DA neurons. […] All antibodies were diluted in PBS containing 0.2% Triton X-100, except the mouse anti-Ibal which was diluted in PBS only.

interleukin-10 (IL-10) = settings: in vivo; cited from earlier work
[7] = in humans; cited from earlier work

NC(=O)c1ccc[n+]([C@@H]2O[C@H](COP(=O)(O)OP(=O)([O-])OC[C@H]3O[C@@H](n4cnc5c(N)ncnc54)[C@H](O)[C@@H]3O)[C@@H](O)[C@@H]2F)c1 [ARA-F-NAD, ara-2′-deoxy-2′-fluoro-nicotinamide adenine dinucleotide]
MPP^+-induced DA cell loss (DA (TH^+) neurons [1]; ARA-F-NAD 200 μM during the intoxication period, MPP^+ 3 μM): almost totally prevented | neuroprotective effect in the presence of Ned-19 (DA (TH^+) neurons [1]; ARA-F-NAD 200 μM, Ned-19 2 μM): abolished

NC(=O)c1ccc[n+]([C@@H]2O[C@H](COP(=O)([O-])OP(=O)(O)OC[C@H]3O[C@@H](n4cnc5c(N)ncnc54)[C@H](O)[C@@H]3O)[C@@H](O)[C@H]2O)c1 [NAD^+, nicotinamide adenine dinucleotide]
number of midbrain DA (TH^+) neurons ([2]; 10 DIV cultures chronically exposed): increased the number of midbrain DA (TH^+) neurons | neuroprotective effect in the presence of Ned-19 ([2]; Ned-19 2 μM): slightly but significantly | neuroprotective effect in the presence of Ex-527 (DA (TH^+) neurons [1]; Ex-527 100 μM, HB7 1 μg/mL, NAD^+ 3 mM, MPP^+ model): only antagonized | MPP^+-induced DA cell loss (DA (TH^+) neurons [1]; MPP^+ 3 μM between 5 and 7 DIV, NAD^+ 3 mM, antibodies 1 μg/mL): either partially or almost totally prevented | neuroprotective effect in the presence of dantrolene (DA (TH^+) neurons [1]; dantrolene 30 μM (FIG. 9), HB7 1 μg/mL, NAD^+ 3 mM, cADPR 200 μM, MPP^+ model): only antagonized | protection from excitotoxicity (cortical neurons [3]): protected from excitotoxicity | protection from oxidative stress (cortical neurons [4]): protected from oxidative stress | glucose uptake (cortical neurons [5]): only modestly increased glucose uptake | concentration at which the neuroprotective effect was exerted (dopaminergic neurons): 3 mM | TH^+ neurons saved from death after GDNF deprivation (DA (TH^+) neurons [6]): saved from death

daratumumab: anti-CD38 antibody approved for the treatment of multiple myeloma
plasma levels of anti-inflammatory interleukin-10 (IL-10) (interleukin-10 (IL-10)): decrease

isatuximab: anti-CD38 antibody
plasma levels of anti-inflammatory interleukin-10 (IL-10) (interleukin-10 (IL-10)): decrease

B1: ABBV-8E12: intravenously injected monoclonal antibody cited for its brain/plasma ratio in humans (antibody, chains of the INN, looked up, V domains shown)
VH: EVKVVESGGGLVQPGGSMKLSCVVSGFTFSNYWVNWVRQAPGKGLEWVAQIRLKSDNYATHYEESVKGRFTISRDDSKSSVYLQMNNLRAEDSGIYYCTNWEDYWGQGTTVTVSS
VL: DIVLTQSPDSLAVSLGERATISCRASQSVSTSRYSYIHWYQQKPGQPPKLLIKYASNLESGVPSRFSGSGSGTDFTLNIHPLEPEDFATYYCHHSWEIPLTFGQGTKLEIK
Brain/plasma ratio [7]: 0.385%

Source: patent US20210087290A1, “COMPOUNDS WHICH SPECIFICALLY BIND TO CD38 FOR USE IN THE TREATMENT OF NEURODEGENERATIVE AND INFLAMMATORY DISEASES” (ENCEFA, priority 2017, published 2021)
